Literature values, collected in patent publication EP0374532B1, “Improved phase separation-microencapsulated pharmaceutical compositions useful for alleviating dental disease” (AMERICAN CYANAMID COMPANY, priority 1988, dated 1990).

Details: human periodontal fluid versus serum

Q: Which “levels in human periodontal fluid higher than serum levels” value does the source give for `CN(C)c1ccc(O)c2c1C[C@H]1C[C@H]3[C@H](N(C)C)C(O)=C(C(N)=O)C(=O)[C@@]3(O)C(O)=C1C2=O` [minocycline, 7-dimethylamino-6-deoxy-6-demethyltetracycline] here?
A: The value was “five”.
